Data taken from patent US11008334B2, “Compositions and methods for treating cancer” (The Regents of the University of California, priority 2012, dated 2021).
Where two headings read alike, the source gives them in different places.

Target: T1, K-RasG12C (1-169) (Homo sapiens, UniProt P01116, G12C)
T1 construct: Un-tagged recombinant K-Ras G12C (1-169) at 4 μM in Buffer A; hexahistidine (cleaved yes); made in house; host or cells: Escherichia coli BL21 (DE)
Experiment: Mass spectrometric screen for extent of covalent labeling
Assay type: binding
Conditions: for percent covalent labeling at 10 µM: 10 micromolar; for Labeling % (10 micM) 24h: 10 micM compound, (plate) or (single) measurement
Method: Un-tagged recombinant K-Ras G12C (1-169) at 4 μM in Buffer A was reacted with inhibitors at 200 μM or 10 μM (2% DMSO final). At 2, 6, and 24 hrs, 10 μL aliquots were removed and the reactions were stopped by addition of 1 μL 2% formic acid. The extent of modification was determined by mass spectrometry.

[1] = 2 h, 2 hrs, read-out: Percent reduction in activity of compound at 10 micromolar relative to control (no compound), 2 hrs
[2] = 6 h, 6 hrs, read-out: Percent reduction in activity of compound at 10 micromolar relative to control (no compound), 6 hrs
[3] = 24 h, 24 hrs, read-out: Percent reduction in activity of compound at 10 micromolar relative to control (no compound), 24 hrs

| SMILES | percent covalent labeling at 10 µM [1] [%] | percent covalent labeling at 10 µM [2] [%] | percent covalent labeling at 10 µM [3] [%] | Labeling % (10 micM) 24h | Labeling % (10 micM) 24h (Table 5) |
| --- | --- | --- | --- | --- | --- |
| C=CS(=O)(=O)NC1CCN(C(=O)COc2cc(OCCN)c(Cl)cc2Cl)CC1 [Ras-027] | ≤ 5 | ≤ 5 | ≤ 5 | – | – |
| C=CS(=O)(=O)NC1CCN(C(=O)CNc2ccc(Cl)cc2Cl)CC1 [Ras-028] | ≤ 5 | ≤ 5 | 20 to 40 | +++ (plate) (20%< +++ <=40%) | +++ (plate) (20%< +++ <=40%) |
| C=CS(=O)(=O)NC1CCN(C(=O)COc2ccc(Cl)cc2N2CCCC2)CC1 [Ras-029] | ≤ 5 | ≤ 5 | ≤ 5 | – | – |
| C=CS(=O)(=O)NC1CCN(C(=O)COc2ccc(Cl)cc2I)CC1 [Ras-030] | ≤ 5 | ≤ 5 | 40 to 60 | – | – |
| C=CS(=O)(=O)NC1CCN(C(=O)COc2ccc(Cl)cc2CNC(C)=O)CC1 [Ras-031] | ≤ 5 | ≤ 5 | ≤ 5 | – | – |
| C=CS(=O)(=O)NC1CCN(C(=O)COc2ccc(Cl)cc2CN)CC1 [Ras-032] | ≤ 5 | ≤ 5 | ≤ 5 | – | – |
| C=CS(=O)(=O)NC1CCN(C(=O)COc2ccc(Cl)cc2N)CC1 [Ras-033] | ≤ 5 | ≤ 5 | ≤ 5 | – | – |
| C=CS(=O)(=O)NC1CCN(C(=O)COc2ccc(Cl)cc2N(C)C)CC1 [Ras-034] | ≤ 5 | ≤ 5 | ≤ 5 | – | – |
| C=CS(=O)(=O)NC1CCN(C(=O)COc2cc(C(N)=O)c(Cl)cc2Cl)CC1 [Ras-035] | ≤ 5 | ≤ 5 | ≤ 5 | – | – |
| C=CS(=O)(=O)NC1CCN(C(=O)COc2cc(I)c(Cl)cc2Cl)CC1 [Ras-036] | ≤ 5 | 5 to 20 | 40 to 60 | – | – |
| C=CS(=O)(=O)NC1CCN(C(=O)COc2cc(C(=O)OC)c(Cl)cc2Cl)CC1 [Ras-037] | ≤ 5 | ≤ 5 | 5 to 20 | – | – |
| C=CS(=O)(=O)NC1CCN(C(=O)COc2cc(C(=O)O)c(Cl)cc2Cl)CC1 [Ras-038] | ≤ 5 | ≤ 5 | ≤ 5 | – | – |
| C=CS(=O)(=O)NC1CCN(C(=O)COc2cc(O)c(Cl)cc2Cl)CC1 [Ras-039] | ≤ 5 | ≤ 5 | 5 to 20 | – | – |
| C=CS(=O)(=O)NC1CCN(C(=O)COc2cc(Br)c(Cl)cc2Cl)CC1 [Ras-040] | ≤ 5 | ≤ 5 | 20 to 40 | – | – |
| C=CS(=O)(=O)NC1CCN(C(=O)COc2ccc(Cl)cc2OC)CC1 [Ras-041] | ≤ 5 | ≤ 5 | 5 to 20 | – | – |
| C=CS(=O)(=O)NC1CCN(C(=O)COc2ccc(Cl)cc2C=O)CC1 [Ras-042] | ≤ 5 | ≤ 5 | 5 to 20 | – | – |
| C=CS(=O)(=O)NC1CCN(C(=O)COc2cc(C(C)=O)c(Cl)cc2Cl)CC1 [Ras-043] | ≤ 5 | ≤ 5 | ≤ 5 | – | – |
| C=CS(=O)(=O)NC1CCN(C(=O)COc2cc(C(C)O)c(Cl)cc2Cl)CC1 (stereo not drawn) [Ras-044] | ≤ 5 | ≤ 5 | 5 to 20 | – | – |
| C=CS(=O)(=O)NC1CCN(C(=O)COc2cc(-c3nn[nH]n3)c(Cl)cc2Cl)CC1 [Ras-045] | ≤ 5 | ≤ 5 | ≤ 5 | – | – |
| C=CS(=O)(=O)NC1CCN(C(=O)COc2ccc(Cl)cc2C(=O)N2CCC(NS(=O)(=O)C=C)CC2)CC1 [Ras-046] | ≤ 5 | ≤ 5 | ≤ 5 | – | – |
| C=CS(=O)(=O)NC1CCN(C(=O)COc2cc(S(N)(=O)=O)c(Cl)cc2Cl)CC1 [Ras-047] | ≤ 5 | ≤ 5 | ≤ 5 | – | – |
| C=CS(=O)(=O)NC1CCN(C(=O)COc2cc(OCCO)c(Cl)cc2Cl)CC1 [Ras-048] | ≤ 5 | ≤ 5 | 5 to 20 | – | – |

| SMILES | percent covalent labeling at 10 µM [1] [%] | percent covalent labeling at 10 µM [2] [%] | percent covalent labeling at 10 µM [3] [%] | Labeling % (10 micM) 24h | Labeling % (10 micM) 24h (Table 5) |
| --- | --- | --- | --- | --- | --- |
| C=CS(=O)(=O)NC1CCN(C(=O)COc2cc(C(=O)NCCO)c(Cl)cc2Cl)CC1 [Ras-049] | ≤ 5 | ≤ 5 | ≤ 5 | – | – |
| C=CS(=O)(=O)NC1CCN(C(=O)COc2cc(CO)c(Cl)cc2Cl)CC1 [Ras-050] | ≤ 5 | ≤ 5 | 5 to 20 | – | – |
| C=CS(=O)(=O)NC1CCN(C(=O)COc2ccc(Cl)cc2CO)CC1 [Ras-051] | ≤ 5 | ≤ 5 | 5 to 20 | – | – |
| C=CS(=O)(=O)NC1CCN(C(=O)CN(C)c2cc(Cl)c(Cl)cc2I)CC1 [Ras-052] | ≤ 5 | ≤ 5 | 5 to 20 | – | – |
| C=CS(=O)(=O)NC1CCN(C(=O)COc2cc(Cl)c(Cl)cc2I)CC1 [Ras-053] | ≤ 5 | 5 to 20 | 40 to 60 | – | – |
| C=CS(=O)(=O)NC1CCN(C(=O)CNc2cc(Cl)c(Cl)cc2OC)CC1 [Ras-054] | ≤ 5 | 20 to 40 | > 60 | – | – |
| C=CS(=O)(=O)NC1CCN(C(=O)CNc2cc(Cl)c(Cl)cc2O)CC1 [Ras-055] | 5 to 20 | 20 to 40 | > 60 | +++++ (plate) (60% < +++++) | +++++ (plate) (60% < +++++) |
| C=CS(=O)(=O)NC1CCN(C(=O)COc2cc(-c3cn[nH]c3)c(Cl)cc2Cl)CC1 [Ras-056] | ≤ 5 | ≤ 5 | ≤ 5 | – | – |
| C=CS(=O)(=O)NC1CCN(C(=O)C(C)Oc2cc(CN)c(Cl)cc2Cl)CC1 (stereo not drawn) [Ras-058] | ≤ 5 | ≤ 5 | ≤ 5 | – | – |
| C=CS(=O)(=O)NC1CCN(C(=O)CNc2cc(Cl)c(Cl)cc2CC)CC1 [Ras-059] | ≤ 5 | 5 to 20 | > 60 | +++++ (single) (60% < +++++) | +++++ (single) (60% < +++++) |
| C=CS(=O)(=O)NC1CCN(c2cc(-c3cc(Cl)c(Cl)cc3I)ccn2)CC1 [Ras-060] | ≤ 5 | ≤ 5 | ≤ 5 | – | – |
| C=CS(=O)(=O)NC1CCN(C(=O)COc2cc(NS(C)(=O)=O)c(Cl)cc2Cl)CC1 [Ras-061] | ≤ 5 | ≤ 5 | ≤ 5 | – | – |
| C=CC(=O)N1CCN(C(=O)CNc2cc(Cl)c(Cl)cc2OC)CC1 [Ras-062] | ≤ 5 | ≤ 5 | 20 to 40 | +++ (single) (20%< +++ <=40%) | +++ (single) (20%< +++ <=40%) |
| C=CS(=O)(=O)NC1CCN(C(=O)COc2cc(Cl)c(Cl)cc2O)CC1 [Ras-063] | ≤ 5 | 5 to 20 | 20 to 40 | – | – |
| C=CS(=O)(=O)NC1CCN(C(=O)CNc2cc(OC)c(Cl)cc2OC)CC1 [Ras-064] | ≤ 5 | ≤ 5 | 20 to 40 | – | – |
| C=CS(=O)(=O)NC1CCN(C(=O)CNc2cc(C(F)(F)F)c(Cl)cc2OC)CC1 [Ras-065] | ≤ 5 | 5 to 20 | 20 to 40 | – | – |
| C=CC(=O)N1CCN(C(=O)CNc2cc(C(F)(F)F)c(Cl)cc2OC)CC1 [Ras-066] | ≤ 5 | ≤ 5 | 5 to 20 | – | – |
| C=CS(=O)(=O)NC1CCN(C(=O)COc2ccc(Cl)cc2C(F)(F)F)CC1 [Ras-067] | ≤ 5 | ≤ 5 | 5 to 20 | – | – |
| C=CS(=O)(=O)NC1CCN(CC(=O)Nc2cc(Cl)c(Cl)cc2I)CC1 [Ras-068] | ≤ 5 | ≤ 5 | ≤ 5 | – | – |
| C#CCOc1cc(OCC(=O)N2CCC(NS(=O)(=O)C=C)CC2)c(Cl)cc1Cl [Ras-069] | ≤ 5 | 5 to 20 | > 60 | – | +++ (single) (20%< +++ <=40%) |
| C=CS(=O)(=O)NC1CCN(C(=O)COc2cc(CCO)c(Cl)cc2Cl)CC1 [Ras-070] | ≤ 5 | ≤ 5 | 20 to 40 | – | – |
| C#Cc1cc(OCC(=O)N2CCC(NS(=O)(=O)C=C)CC2)c(Cl)cc1Cl [Ras-071] | ≤ 5 | ≤ 5 | 40 to 60 | – | – |
